Reference: ChEMBL document CHEMBL1201862, “PubChem BioAssay data set” (2004)
Active and inactive are the calls of the source.

Experiments:
[1] = viability loss in HEK293 kidney cells – cell-based, cherry-picks, set 5, cytotoxicity control, dose response (AID 1053117); format: functional
[2] = biological target: Large T antigen (Simian virus 40, UniProt P03070); format: functional, Betapolyomavirus macacae;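 also: Confirmatory-stage PubChem screen for compounds that inhibit SV40 T antigen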
[3] = cells; format: functional, cell-based
[4] = biological target: T1, Trace amine-associated receptor 1 (Homo sapiens, UniProt Q96RJ0); test: Fluorescence-based cell-based high throughput dose response assay to identify agonists of the human trace amine associated receptor 1 (TAAR1).; format: functional
T1 sequence (Q96RJ0 whole entry): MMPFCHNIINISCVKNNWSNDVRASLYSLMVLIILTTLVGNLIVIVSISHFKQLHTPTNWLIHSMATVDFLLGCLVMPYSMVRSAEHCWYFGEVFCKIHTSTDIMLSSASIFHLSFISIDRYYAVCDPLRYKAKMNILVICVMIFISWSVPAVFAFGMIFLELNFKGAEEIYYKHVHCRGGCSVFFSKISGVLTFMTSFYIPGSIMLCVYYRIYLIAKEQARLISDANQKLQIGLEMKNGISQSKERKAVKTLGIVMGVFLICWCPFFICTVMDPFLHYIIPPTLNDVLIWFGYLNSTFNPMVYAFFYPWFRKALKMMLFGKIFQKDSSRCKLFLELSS

[5] = cells; format: functional, cell-based; remark: listed apart in the source
[6] = biological target: T1, Trace amine-associated receptor 1; test: Counterscreen for agonists of the human trace amine associated receptor 1 (hTAAR1): Fluorescence-based cell-based high throughput dose response assay to identify hTAAR1 agonist that also desensitize TAAR1 receptor response.; format: functional
[7] = biological target: NAD-dependent protein deacylase sirtuin-5, mitochondrial (Homo sapiens, UniProt Q9NXA8); test: sirtuin-5 deacylation blockers, concentration series – biochemical, fluorescence imaging, cherry-pick, set 5, dose response (AID 720591);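 also: desuccinylation of succinyl peptide AMC substrate read as fluorescence after trypsin release; potency of inhibitors that lower fluorescence and may act on trypsin instead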
NAD-dependent protein deacylase sirtuin-5, mitochondrial, sequence (Q9NXA8 whole entry): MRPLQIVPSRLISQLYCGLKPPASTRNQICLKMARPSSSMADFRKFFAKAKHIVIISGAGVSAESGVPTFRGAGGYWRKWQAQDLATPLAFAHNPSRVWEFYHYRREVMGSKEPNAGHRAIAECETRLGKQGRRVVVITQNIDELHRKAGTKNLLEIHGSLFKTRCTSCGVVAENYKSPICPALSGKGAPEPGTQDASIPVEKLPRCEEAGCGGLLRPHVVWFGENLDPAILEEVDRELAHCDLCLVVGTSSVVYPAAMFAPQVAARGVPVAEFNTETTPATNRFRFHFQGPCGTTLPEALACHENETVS

[8] = test system: INS1; test: INS-1E survival protection against cytokine death – cell-based, luminescence, retest, dose response (AID 449756); format: functional; settings: Rattus norvegicus;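 also: cell death triggered by IL-1 beta plus TNF-alpha plus IFN-gamma mixture; protective hits raise ATP signal compared with cytokine alone wells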
[9] = blockers of bursicon-stimulated LGR2 cAMP reporter – cell-based, HEK293, CRE-luciferase reporter, cherry pick, set 2, dose response (AID 743343); format: functional;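 also: transfected cells were stimulated with diluted bursicon conditioned medium after compound addition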
[10] = viability loss in HEK293 cells – cell-based, plate reader, cherry-picked samples, cytotoxicity control, dose response (AID 743446); format: functional
[11] = toxicity toward HepG2 liver cells – cell-based, plate reader, cherry-pick, antagonist series, cytotoxicity control, dose response (AID 743416); format: functional
[12] = A549 cell cytotoxicity, dose response, cytotoxicity control, plate reader, cherry-pick, antagonist series (AID 743412); format: functional, cell-based
[13] = T. cruzi growth inhibition in host cells, dose response, cell-based, plate reader, dry powder, set 2 (AID 652275); format: functional
[14] = biological target: 1-phosphatidylinositol 4,5-bisphosphate phosphodiesterase gamma-1 (Homo sapiens, UniProt P19174); test: Counterscreen for inhibitors of phospholipase C isozymes (PLC-B3): Fluorescence-based biochemical high throughput dose response assay to identify inhibitors of phospholipase C isozymes (PLC-gamma1).
1-phosphatidylinositol 4,5-bisphosphate phosphodiesterase gamma-1, sequence (P19174 whole entry): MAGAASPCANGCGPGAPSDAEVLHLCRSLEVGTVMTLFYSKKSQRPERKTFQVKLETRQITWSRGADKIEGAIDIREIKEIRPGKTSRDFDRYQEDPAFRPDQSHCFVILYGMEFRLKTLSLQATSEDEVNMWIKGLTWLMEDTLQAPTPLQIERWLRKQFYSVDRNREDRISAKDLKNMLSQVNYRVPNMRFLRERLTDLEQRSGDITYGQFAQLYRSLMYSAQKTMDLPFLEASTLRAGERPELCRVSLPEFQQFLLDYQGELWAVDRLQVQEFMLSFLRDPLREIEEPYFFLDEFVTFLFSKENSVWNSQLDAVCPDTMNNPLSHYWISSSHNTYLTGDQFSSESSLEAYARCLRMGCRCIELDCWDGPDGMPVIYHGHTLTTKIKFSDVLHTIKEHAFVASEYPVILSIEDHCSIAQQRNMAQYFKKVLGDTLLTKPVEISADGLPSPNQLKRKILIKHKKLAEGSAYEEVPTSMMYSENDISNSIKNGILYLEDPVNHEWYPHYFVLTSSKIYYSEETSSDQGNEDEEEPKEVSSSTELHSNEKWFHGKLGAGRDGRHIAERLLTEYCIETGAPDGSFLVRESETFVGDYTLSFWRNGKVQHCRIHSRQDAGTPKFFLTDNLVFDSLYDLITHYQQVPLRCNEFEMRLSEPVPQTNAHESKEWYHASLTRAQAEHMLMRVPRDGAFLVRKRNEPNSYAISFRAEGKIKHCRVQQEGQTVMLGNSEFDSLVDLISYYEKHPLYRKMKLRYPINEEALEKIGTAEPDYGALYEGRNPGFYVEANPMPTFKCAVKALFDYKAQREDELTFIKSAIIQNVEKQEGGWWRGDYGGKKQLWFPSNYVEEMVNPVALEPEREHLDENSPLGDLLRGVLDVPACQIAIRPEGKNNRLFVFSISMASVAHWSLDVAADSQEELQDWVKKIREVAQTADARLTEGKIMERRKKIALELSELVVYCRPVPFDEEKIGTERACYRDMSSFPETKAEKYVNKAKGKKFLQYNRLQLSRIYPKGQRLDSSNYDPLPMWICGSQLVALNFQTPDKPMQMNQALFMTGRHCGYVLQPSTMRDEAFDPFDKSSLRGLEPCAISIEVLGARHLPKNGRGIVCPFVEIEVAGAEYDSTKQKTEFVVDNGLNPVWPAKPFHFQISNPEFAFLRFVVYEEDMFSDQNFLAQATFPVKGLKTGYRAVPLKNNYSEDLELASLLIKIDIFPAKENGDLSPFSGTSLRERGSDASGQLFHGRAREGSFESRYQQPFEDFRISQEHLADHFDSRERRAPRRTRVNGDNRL

[15] = biological target: 1-phosphatidylinositol 4,5-bisphosphate phosphodiesterase beta-3 (Homo sapiens, UniProt Q01970); test: Fluorescence-based biochemical high throughput dose response assay to identify inhibitors of phospholipase C isozymes (PLC-B3).
1-phosphatidylinositol 4,5-bisphosphate phosphodiesterase beta-3, sequence (Q01970 whole entry): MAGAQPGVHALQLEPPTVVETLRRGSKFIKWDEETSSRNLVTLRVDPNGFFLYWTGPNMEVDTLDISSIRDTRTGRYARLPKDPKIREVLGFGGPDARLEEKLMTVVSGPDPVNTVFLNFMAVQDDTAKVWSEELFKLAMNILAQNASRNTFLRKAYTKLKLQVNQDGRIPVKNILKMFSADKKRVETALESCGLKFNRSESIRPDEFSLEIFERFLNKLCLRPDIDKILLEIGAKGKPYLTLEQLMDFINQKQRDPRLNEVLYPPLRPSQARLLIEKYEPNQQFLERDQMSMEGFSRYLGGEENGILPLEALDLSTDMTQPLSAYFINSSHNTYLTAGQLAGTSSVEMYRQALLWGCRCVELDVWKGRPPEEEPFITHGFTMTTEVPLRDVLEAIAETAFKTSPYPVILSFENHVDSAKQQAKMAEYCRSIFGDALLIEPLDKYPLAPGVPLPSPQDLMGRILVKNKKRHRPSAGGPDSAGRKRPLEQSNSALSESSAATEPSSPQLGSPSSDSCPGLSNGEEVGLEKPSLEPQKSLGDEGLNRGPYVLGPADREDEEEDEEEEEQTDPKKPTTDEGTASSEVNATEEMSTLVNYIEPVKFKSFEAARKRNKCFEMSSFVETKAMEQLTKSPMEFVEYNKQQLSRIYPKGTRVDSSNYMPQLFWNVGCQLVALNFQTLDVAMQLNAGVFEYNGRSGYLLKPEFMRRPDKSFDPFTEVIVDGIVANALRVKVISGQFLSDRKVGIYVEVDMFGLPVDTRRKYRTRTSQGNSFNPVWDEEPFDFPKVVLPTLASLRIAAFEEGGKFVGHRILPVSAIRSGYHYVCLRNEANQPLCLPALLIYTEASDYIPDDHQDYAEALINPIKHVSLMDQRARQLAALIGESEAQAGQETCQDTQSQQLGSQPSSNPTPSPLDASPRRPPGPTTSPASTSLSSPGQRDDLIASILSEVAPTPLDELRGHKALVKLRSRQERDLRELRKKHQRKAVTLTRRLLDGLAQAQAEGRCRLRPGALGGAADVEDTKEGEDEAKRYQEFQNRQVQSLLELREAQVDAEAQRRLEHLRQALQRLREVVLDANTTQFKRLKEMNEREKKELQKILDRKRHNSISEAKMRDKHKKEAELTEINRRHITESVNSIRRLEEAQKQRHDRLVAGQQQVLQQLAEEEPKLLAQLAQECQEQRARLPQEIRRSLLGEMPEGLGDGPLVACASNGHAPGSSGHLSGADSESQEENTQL

[16] = test system: HEK293; test: cells; settings: Homo sapiens
[17] = HIV-1 AD8 envelope cell-cell fusion blockers – cherry-pick, dose response (AID 652062); format: functional, cell-based;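 also: luciferase signal from cell-cell fusion driven by HIV-1 clade B AD8 Env; potency is for inhibitors of fusion seen as a drop in luminescence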
[18] = off-target signal loss in HeLa-CEM21 co-culture – HeLa F-luc CTL cells, cherry-picked, counter-screen for HIV-1 Env fusion inhibitor project, dose response (AID 652040); format: functional, cell-based;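 also: potency for signal decrease marking cytotoxic or nonspecific inhibition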
[19] = viability loss in CEM21 cells – cell-based, CellTiter-Glo luminescence, cherry-picked, cytotoxicity control for viral fusion inhibitor project, dose response (AID 652042); format: functional;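 also: potency for signal decrease meaning cytotoxicity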
[20] = blockers of HIV-1 envelope-mediated cell-cell fusion – cherry-pick, dose response (AID 652057); format: functional, cell-based
[21] = blockers of HIV-1 ZM109 envelope-driven cell-cell fusion – HeLa effector, CEM target cells, luciferase, cherry-pick, dose response (AID 652058); format: functional, cell-based;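 also: luciferase signal from HIV-1 Env mediated cell-cell fusion of effector and target cells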
[22] = test system: HEK293; test: cells; settings: Homo sapiens; remark: listed apart in the source
[23] = biological target: Tyrosyl-DNA phosphodiesterase 2 (Homo sapiens, UniProt O95551); test: potency against TDP2 phosphodiesterase activity – biochemical, epi absorbance, IC50, dose response (AID 743297)
Tyrosyl-DNA phosphodiesterase 2, sequence (O95551 whole entry): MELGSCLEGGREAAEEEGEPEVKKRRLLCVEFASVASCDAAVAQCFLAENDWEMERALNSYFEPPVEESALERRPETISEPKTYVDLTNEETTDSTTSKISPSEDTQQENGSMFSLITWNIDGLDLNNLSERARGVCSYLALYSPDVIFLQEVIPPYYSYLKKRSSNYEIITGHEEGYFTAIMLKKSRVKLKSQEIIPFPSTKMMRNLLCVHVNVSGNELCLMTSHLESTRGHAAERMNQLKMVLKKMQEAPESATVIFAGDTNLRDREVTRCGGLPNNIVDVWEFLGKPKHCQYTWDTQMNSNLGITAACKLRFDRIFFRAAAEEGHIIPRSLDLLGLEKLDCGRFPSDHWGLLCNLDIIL

Large T antigen, sequence (P03070 whole entry): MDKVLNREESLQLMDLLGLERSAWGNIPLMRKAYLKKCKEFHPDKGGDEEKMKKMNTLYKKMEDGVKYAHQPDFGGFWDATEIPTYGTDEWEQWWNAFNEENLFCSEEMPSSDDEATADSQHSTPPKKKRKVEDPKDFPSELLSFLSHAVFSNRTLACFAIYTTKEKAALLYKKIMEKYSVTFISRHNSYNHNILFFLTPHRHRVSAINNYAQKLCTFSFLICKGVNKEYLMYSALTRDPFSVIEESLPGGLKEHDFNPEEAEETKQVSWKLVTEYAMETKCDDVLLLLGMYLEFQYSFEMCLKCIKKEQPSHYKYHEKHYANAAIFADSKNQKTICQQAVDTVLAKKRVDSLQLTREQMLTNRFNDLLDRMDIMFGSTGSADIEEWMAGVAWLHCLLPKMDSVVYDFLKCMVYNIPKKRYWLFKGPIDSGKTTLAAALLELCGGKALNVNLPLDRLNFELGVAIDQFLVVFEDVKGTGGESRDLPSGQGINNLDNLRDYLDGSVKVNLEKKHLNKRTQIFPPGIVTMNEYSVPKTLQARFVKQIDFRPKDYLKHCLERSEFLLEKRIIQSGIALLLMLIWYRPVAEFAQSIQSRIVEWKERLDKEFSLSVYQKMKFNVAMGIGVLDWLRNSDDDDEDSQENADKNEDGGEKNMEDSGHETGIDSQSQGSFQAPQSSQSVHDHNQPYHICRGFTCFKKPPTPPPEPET

## C=CCC[C@H](Cc1ccc(F)cc1)C(=O)OC[C@H](Cc1c[nH]c2ccccc12)NC(=O)[C@@H](CC=C)CC(=O)N[C@@H](CO)Cc1ccccc1
[1]
  AC50: > 52 µM (inactive)

## Oc1ccc(/C=N\Nc2cnnc(O)c2Cl)c(O)c1
[2]
  IC50: 15.7 µM (active)
[3]
  EC50: > 29.9 µM (inactive)
[4]
  EC50: 1.16 µM (active)
[5]
  IC50: > 29.9 µM (inactive)
[6]
  IC50: 24.5 µM (inactive)

## COc1ccc2cc(CN(CCc3ccccc3)Cc3nnnn3CC3CCCO3)c(O)nc2c1 (configuration not stated)
[3]
  EC50: > 29.9 µM (inactive)
[4]
  EC50: 4.42 µM (active)
[5]
  IC50: > 29.9 µM (inactive)
[6]
  IC50: 8.83 µM (active)

## CC(C)(C)NC(=O)CSc1nc2cccnc2n1C1CCCCC1
[7]
  AC50: > 30 µM (inactive)

## CC(=O)c1ccc(Nc2cc(C)nc3c(C)cc(C)cc23)cc1
[8]
  AC50: 5.22 µM (active)
[9]
  AC50: 40.3 µM (active)
[10]
  AC50: 23.9 µM (active)
[11]
  AC50: 1.9 µM (active)
[12]
  AC50: 2.54 µM (active)

## CC(C)N1C[C@H](CNCc2ccc(Cl)cc2)Oc2c(NC(=O)c3ccncc3)cccc2C1=O
[13]
  AC50: 0.731 µM (active)

## COc1ccccc1COC(=O)c1cccc(S(=O)(=O)N2CCCC2)c1
[14]
  IC50: > 123 µM (inactive)
[15]
  IC50: > 123 µM (inactive)

## CC(=O)Nc1ccc(N(CC(O)Cn2c3ccccc3c3ccccc32)S(=O)(=O)c2ccc(C)cc2)cc1 (configuration not stated)
[16]
  EC50: > 59.7 µM (inactive)
[17]
  AC50: 2.8 µM (active)
[18]
  AC50: 1.6 µM (active)
[19]
  AC50: 28.4 µM (active)
[20]
  AC50: 0.507 µM (active)
[21]
  AC50: 0.558 µM (active)
[22]
  EC50: > 59.7 µM (inactive)

## COC1=C(N2CCOCC2)C(=O)c2ccccc2C1=O
[23]
  IC50: 77.2 µM (inactive)
